Experimental findings from patent US8778889B2, “Antimicrobial decapeptide oral hygiene treatment” (The United States of America as represented by the …, priority 2003, dated 2014) are described below.

Assay [1] relates to oral biofilms formed on saliva-coated HA disks by salivary bacteria. Kind of assay: In vitro plaque assay, viable counts of oral biofilms on saliva-coated HA disks. The format is cell-based, human salivary bacteria. From the text: In conjunction with the dual flow cell system, a modification of an in vitro plaque model of biofilm formation described by Guggenheim et al. (Guggenheim et al., 2001) was used to determine the effects of tested antimicrobials and other agents on developed oral biofilms (see Appendix I for details). HA disks (Clarkson, south Williamsport, Pa.) were employed as substrates for salivary bacteria to form biofilms.
To determine the inhibitory activity of KSL on developed oral biofilms, disks containing 45 h-old biofilms were transferred to wells containing aqueous KSL (200 μg/ml; 1 ml/well). Following 30 min exposure at 37° C., disks were rinsed with 3×1 ml of saline and transferred to sterile 15 ml polypropylene tubes containing 1 ml PBS. Biofilm cells adherent to surfaces (after treatment) were recovered by sonicating for 2 min at 5 watts with a Microson ultrasonic cell disrupter equipped with a cup horn (Misonix Inc., Farmingdale, N.Y.). Settings including the time interval used in the sonication were predetermined empirically to yield maximal recovery of adherent biofilm cells.
The effect of KSL on disrupted biofilms was assessed by recovering biofilm cells from HA disks (45 h-old biofilms) through sonication as described above. The detached biofilm cells (in sterile dH2O) were mixed with an equal volume of aqueous KSL to obtain a final peptide concentration of 200 μg/ml, and the reaction mixtures incubated at 37° C. for 30 min. The interactions of KSL and suspended biofilm cells were terminated by washing in PBS.
To determine the effect of the surface-active agent (benzalkonium chloride; Sigma, St. Louis, Mo.) in promoting the killing of intact biofilms by KSL, 66 h-old oral biofilms were treated with KSL (200 μg/ml), benzalkonium chloride (0.001%), or a combination of the two agents, followed by viable counts determinations and confocal laser scanning microscopy of treated samples.
Viable counts of biofilm cells derived from treated disks or disrupted biofilms were determined by spiral plating serially diluted samples onto blood agar plates. Distilled water or 0.12% aqueous chlorhexidine digluconate (Sigma) was used as the negative or positive control, respectively. The 45 h-old biofilms were exposed to chlorhexidine for 1 min, and to water for 30 min at 37° C.
In this assay, HA disks (Clarkson Chromatography Products, Inc., South Williamsport, Pa.) were used as surfaces on which plaque formation can occur. Before use, sterile HA disks were conditioned in the wells of a 24-well microtiter plate (Becton Dickinson, Franklin Lakes, N.J.) containing 50% sterile saliva by incubating at room temperature for a minimum of two hours on a rotating platform at 95 rpm. The saliva was removed and each well inoculated with isolated salivary bacteria at a bacterial cell concentration of 1.0×10^7 cells/ml in sterile 50% whole saliva. After two hours of incubation (with rotation) at 37° C. to allow the bacteria to adhere to surfaces, unattached bacteria were removed and replaced with supplemented saliva-based medium. The plates were incubated with rotation at 37° C. for 45 h (with medium replaced three times), or 66 h (with medium replaced five times) in a CO2 incubator prior to treatments, and the recovery of biofilm cells from treated or untreated disks.
In these studies, KSL or KSL-W was used at 200 μg/ml, whereas Bzl and CPC were used at 0.001% and 0.0025%, respectively. […]

The subject of assay [2] is biofilms grown on saliva-coated HA surfaces. Kind of assay: Live/Dead BacLight staining with confocal laser scanning microscopy of treated biofilms. It counts as cell-based, human salivary bacteria. Particulars: 66 h-old biofilms; KSL 200 μg/ml, Bzl 0.001%, CHX 0.12%. The method, then: (A) Effect of KSL on intact versus disrupted 45 h biofilms formed on saliva-coated HA disks by salivary bacteria using the in vitro plaque assay. A Mann-Whitney test was used for comparison of log reductions in CFU between the experimental groups (KSL-treated intact or disrupted biofilms) with the control groups (dH2O-treated intact or disrupted biofilms). The single asterisk represents a statistically significant difference between KSL and dH2O-treated intact biofilms (p<0.05). Likewise, double asterisks represent a statistically significant difference between KSL and dH2O-treated disrupted biofilms (p<0.01). […] (B) Effect of benzalkonium chloride in promoting the bactericidal activity of KSL against 66 h-old intact oral biofilms formed on saliva-coated HA disks using the in vitro plaque system. A Kruskal-Wallis test was used to compare log reductions in CFU among various treatment groups including the control group (dH2O-treated). The single asterisk represents a statistically significant difference between the combined treatment of KSL and benzalkonium chloride (Bzl) and dH2O (p<0.001), KSL (p<0.01), or Bzl (p<0.01)-treated intact biofilms. Double asterisks represent a statistically significant difference between CHX and dH2O (p<0.001) or Bzl (P<0.05)-treated intact biofilms. […] No significant difference in viability counts was observed between CHX-treated versus the combined use of KSL and Bzl. For (A) and (B), the data represent the determinations of one of three separate experiments, each performed in quadruplicate. Bars represent standard deviations. (C) Confocal images of control and treated biofilms grown on saliva-coated HA surfaces. Live/Dead BacLight™ Viability kit (Molecular Probes, Eugene, Oreg.) was used to assess the viability of biofilm cells exposed to different treatments. […] An excitation wavelength of 488 nm was used and the fluorescence light emitted was collected by two separate emission filters, 500-530 nm (SYTO 9, live), and 650-710 nm (propidium iodide, dead). […]

For the next assay, the system named is A. baumannii ATCC #19606. The format is cell-based, Acinetobacter baumannii. From the text: (§1) As shown in the table below, many drug-resistant pathogens including multidrug-resistant Acinetobacter baumannii (clinical isolates) were susceptible to the bactericidal activity of the newly developed antimicrobial peptides. […] This is shown by their lower MIC and MBC against a number of antibiotic-resistant bacteria including methicillin-resistant Staphylococcus aureus, vancomycin-resistant Enterococci, and multidrug-resistant Acinetobacter baumannii. Many of these resistant strains are involved in nosocomial infections, which affect the immunocompromised and the elderly individuals with weakened defenses. The tests were done in a broth microdilution assay as described in our earlier publication (Concannon et al., 2003).

A further assay has as its system A. baumannii WRAMC #11. It counts as cell-based, Acinetobacter baumannii.
Source text: as §1

The next assay deals with A. baumannii WRAMC #13. It counts as cell-based, Acinetobacter baumannii.
Source text: as §1

For the next assay, the system named is A. baumannii WRAMC #14. It counts as cell-based, Acinetobacter baumannii.
Source text: as §1

The subject of another assay is A. baumannii WRAMC #15. It counts as cell-based, Acinetobacter baumannii.
Source text: as §1

In a further assay the test system is A. baumannii WRAMC #16. The format is cell-based, Acinetobacter baumannii.
Source text: as §1

A further assay concerns A. baumannii WRAMC #17. The format is cell-based, Acinetobacter baumannii.
Source text: as §1

The subject of the next assay is A. baumannii WRAMC #18. The format is cell-based, Acinetobacter baumannii.
Source text: as §1

In the next assay the test system is A. baumannii WRAMC #19. The format is cell-based, Acinetobacter baumannii.
Source text: as §1

The subject of the next assay is A. baumannii WRAMC #2. The format is cell-based, Acinetobacter baumannii.
Source text: as §1

For another assay, the system named is A. baumannii WRAMC #4. The format is cell-based, Acinetobacter baumannii.
Source text: as §1

A further assay deals with A. baumannii WRAMC #5. It counts as cell-based, Acinetobacter baumannii.
Source text: as §1

Another assay has as its system A. baumannii WRAMC #8. The format is cell-based, Acinetobacter baumannii.
Source text: as §1

Another assay relates to MRSA ATCC #33591. It counts as cell-based, Staphylococcus aureus.
Source text: as §1

The next assay deals with MRSA ATCC #43300. The format is cell-based, Staphylococcus aureus.
Source text: as §1

Another assay concerns MRSA VVRAMC #10. The format is cell-based, Staphylococcus aureus.
Source text: as §1

The subject of another assay is MRSA VVRAMC #1. The format is cell-based, Staphylococcus aureus.
Source text: as §1

The next assay relates to MRSA WRAMC #12. It counts as cell-based, Staphylococcus aureus.
Source text: as §1

The subject of the next assay is MRSA WRAMC #9. It counts as cell-based, Staphylococcus aureus.
Source text: as §1

The next assay relates to VRE ATCC #51299. It counts as cell-based, Enterococci.
Source text: as §1

The subject of the next assay is VRE VVRAMC #7. The format is cell-based, Enterococci.
Source text: as §1

The subject of the next assay is VRE WRAMC #3. The format is cell-based, Enterococci.
Source text: as §1

For a further assay, the system named is VRE WRAMC #6. It counts as cell-based, Enterococci.
Source text: as §1

The next assay relates to Actinomyces naeslundii. Kind of assay: Adherence inhibition of tritiated A. naeslundii to saliva-coated HA disks. The format is cell-based. Particulars: disks pretreated with KSL-W 1 mg/ml; 2 hour incubation at 37° C. The protocol:
In these studies, saliva-coated HA disks pre-treated with salivary proteins, KSL-W (1 mg/ml), or chlorhexidine (1 mg/ml), were used as colonizable surfaces to test the adherence of tritiated A. naeslundii, an early colonizer that is involved in dental plaque formation. In these experiments, labeled A. naeslundii ([…] cells per ml) were incubated for 2 h with HA disks that were pre-treated with different agents.

Consider `[H]/N=C(\N/C(=N/[H])NCCCCCCNC(=N)NC(=N)Nc1ccc(Cl)cc1)Nc1ccc(Cl)cc1` [chlorhexidine, chlorhexidine digluconate, reference compound], for which, in [1] (intact 45-h-old biofilms, 0.12% chlorhexidine, 1 min), the “reduction of viable counts, intact biofilms” value is “larger reduction of viable counts”. Moreover, the “viability of biofilm cells by live/dead staining” value in assay [2] is reported as “significantly reduced the viability of biofilm cells”.
Turning to “H-KKVVFWVKFK-NH2 [KSL-W, NH2-Lys-Lys-Val-Val-Phe-Trp-Val-Lys-Phe-Lys-CONH2]”, the MBC (in general, the smallest concentration meeting the test's criterion for killing) came to 100 µg/mL against A. baumannii ATCC #19606; 25 µg/mL against A. baumannii WRAMC #11; 50 µg/mL against A. baumannii WRAMC #13; 50 µg/mL against A. baumannii WRAMC #14; 50 µg/mL with A. baumannii WRAMC #15; 50 µg/mL with A. baumannii WRAMC #16. Further, the MBC amounted to 25 µg/mL in the assay with A. baumannii WRAMC #17; 25 µg/mL with A. baumannii WRAMC #18; 100 µg/mL with A. baumannii WRAMC #19; 100 µg/mL against A. baumannii WRAMC #2; 25 µg/mL with A. baumannii WRAMC #4; 25 µg/mL against A. baumannii WRAMC #5. Also, the MBC against A. baumannii WRAMC #8 was 25 µg/mL; in the assay on MRSA ATCC #33591, 200 µg/mL; in the assay with MRSA ATCC #43300, 50 µg/mL; with MRSA VVRAMC #10 it was 200 µg/mL; with MRSA VVRAMC #1, 100 µg/mL; in the assay on MRSA WRAMC #12, more than 200 µg/mL. The MBC against MRSA WRAMC #9 was more than 200 µg/mL; in the assay with VRE ATCC #51299, 200 µg/mL; in the assay with VRE VVRAMC #7, 25 µg/mL; with VRE WRAMC #3, 200 µg/mL; with VRE WRAMC #6, 100 µg/mL. The MIC (as a rule, the lowest concentration that inhibits growth of the organism) amounted to 25 µg/mL against A. baumannii WRAMC #14; 12.5 µg/mL with A. baumannii WRAMC #18; 50 µg/mL against A. baumannii WRAMC #19; 25 µg/mL against A. baumannii WRAMC #2; 12.5 µg/mL in the assay with A. baumannii WRAMC #5; 100 µg/mL in the assay with MRSA ATCC #33591. In addition, the MIC was 25 µg/mL against MRSA ATCC #43300; 200 µg/mL against MRSA WRAMC #12; 200 µg/mL against MRSA WRAMC #9; 100 µg/mL with VRE ATCC #51299; 100 µg/mL in the assay with VRE WRAMC #3; 12.5 µg/mL with VRE WRAMC #6. Also, the “adherence of tritiated A. naeslundii to pretreated HA disks” value in the assay with Actinomyces naeslundii was “great reduction in the number of bacteria that attached”.
With “benzalkonium chloride [reference compound]”, the “effect on viability of intact biofilms compared to water treatment” value in [1] (66 h-old oral biofilms, KSL 200 μg/ml, benzalkonium chloride 0.001%) is “less effect on the viability”. The “viability of biofilm cells by live/dead staining” value in [2] was “less impact on the viability of biofilm cells”.
